In patent US9643980B2, “Benzoxazepin oxazolidinone compounds and methods of use” (Genentech, Inc., priority 2015, dated 2017):
pEC50, pKi: −log10 of the molar value. Where two headings read alike, the source gives them in different places.

Legend:
PI3Kγ = PI3Kγ (Homo sapiens, UniProt P48736); assay: PI3K binding assay (lipid kinase reaction, ADP-Glo), PI3K gamma; assay type: biochemical; settings: Table 2A; first value of cell (ADP-Glo, Example 901)
Procedure: (§1) Reactions are carried out using the following conditions for each PI3K isoform as in Table 5.
(§2) All reactions are carried out at room temperature. […] The reaction is started by the addition of 2 μL ATP/MgCl2. The kinase reaction buffer contains 50 mM HEPES, 50 mM NaCl 3 mM MgCl2, 0.01% BSA, 1% DMSO, and enzyme and substrate concentrations as indicated in the above table. The reaction is stopped by the addition of 10 μL ADP-Glo reagent. Plates are read in a Perkin Elmer Envision system using luminescence mode. 10 point dose response curves are generated for each test compound. Ki values for each compound are determined using the Morrison Equation.

PI3Kδ = PI3Kδ (Homo sapiens, UniProt O00329); assay: PI3K binding assay (lipid kinase reaction, ADP-Glo), PI3K delta; assay type: biochemical
Procedure: as §1, §2

PI3Kβ = PI3Kβ (Homo sapiens, UniProt P42338); assay: PI3K binding assay (lipid kinase reaction, ADP-Glo), PI3K beta; assay type: biochemical; settings: Table 2A; first value of cell (ADP-Glo, Example 901)
Procedure: as §1, §2

PI3Kα = PI3Kα (Homo sapiens, UniProt P42336); assay: PI3K binding assay (lipid kinase reaction, ADP-Glo), PI3K alpha; assay type: biochemical
Procedure: as §1, §2

P-PRAS40 SW48(E545K) = assay: Inhibition of P-PRAS40 in SW48 isogenic cells, PI3Kα mutant E545K; assay type: cell-based; settings: for pEC50: SW48, 24 hours of compound treatment, read-out: P-PRAS40 SW48(E545K) EC50
Procedure: (§3) All statistics were performed using KaleidaGraph Software (version 4.1.3). A Student t-Test was performed using unpaired data with equal variance to compare activity against mutant cells and wild-type cells. P<0.05 is considered to be significant.
(§4) The following assays are intended for determining the cellular potency and mutant selectivity of small molecule PI3Kα inhibitors. […] Mutant selectivity of PI3Kα inhibitors is determined by EC50 potency ratios in the WT vs. E545K cell lines and WT vs. H1047R cell lines.
(§5) The three cell lines (WT, E545K, and H1047R) are plated and assayed in parallel. The following day, test compounds are serially diluted in dimethyl sulfoxide (DMSO) and added to cells (final DMSO concentration 0.5%). […] Cell lysates are added to assay plates pre-coated with antibodies against phosphorylated PRAS40. Phosphorylated PRAS40 in samples are allowed to bind to the capture antibodies overnight at 4° C. The detection antibody (anti-total PRAS40, labeled with an electrochemiluminescent SULFO-TAG) is added to the bound lysate and incubated for 1 hour at room temperature. The MSD Read Buffer is added such that when a voltage is applied to the plate electrodes, the labels bound to the electrode surface emit light. The MSD Sector Instrument measures the intensity of the light, and quantitatively measures the amount of phosphor-PRAS40 in the sample. Percent inhibition of PRAS40 phosphorylation by varying concentrations of test compounds is calculated relative to untreated controls. EC50 values are calculated using the 4 parameter logistic nonlinear regression dose-response model.

P-PRAS40 SW48(H1047R) = assay: Inhibition of P-PRAS40 in SW48 isogenic cells, PI3Kα mutant H1047R; assay type: cell-based; settings: for pEC50: SW48, 24 hours of compound treatment, read-out: P-PRAS40 SW48(H1047R) EC50
Procedure: as §3, §4, §5

P-PRAS40 SW48(parental) = assay: Inhibition of P-PRAS40 in SW48 isogenic cells, PI3Kα wild-type (parental); settings: Homo sapiens, SW48, 24 h
Procedure: The three cell lines (WT, E545K, and H1047R) are plated and assayed in parallel. The following day, test compounds are serially diluted in dimethyl sulfoxide (DMSO) and added to cells (final DMSO concentration 0.5%). Cells are then incubated for 24 hours at 37° C. and 5% CO2. […] Cell lysates are added to assay plates pre-coated with antibodies against phosphorylated PRAS40. Phosphorylated PRAS40 in samples are allowed to bind to the capture antibodies overnight at 4° C. The detection antibody (anti-total PRAS40, labeled with an electrochemiluminescent SULFO-TAG) is added to the bound lysate and incubated for 1 hour at room temperature. The MSD Read Buffer is added such that when a voltage is applied to the plate electrodes, the labels bound to the electrode surface emit light. The MSD Sector Instrument measures the intensity of the light, and quantitatively measures the amount of phosphor-PRAS40 in the sample. Percent inhibition of PRAS40 phosphorylation by varying concentrations of test compounds is calculated relative to untreated controls. EC50 values are calculated using the 4 parameter logistic nonlinear regression dose-response model.

[1] = Table 2A, first value of cell (ADP-Glo, Example 901)
[2] = Table 2A, first value of cell (ADP-Glo, Example 901), read-out: PI3Kα Ki
[3] = Table 2A, selectivity ratio (fold)
[4] = Homo sapiens, Table 3A, geometric mean
[5] = Table 3A, EC50 potency ratio, p value (Student t-Test) given
[6] = read-out: P-PRAS40 SW48(parental) EC50 (nM)
[7] = Table 2B comparator compounds, first value of cell (ADP-Glo)
[8] = Homo sapiens, Table 3B comparator compounds
[9] = read-out: P-PRAS40 SW48(parental) EC50 (μM)
[10] = Table 2B comparator compounds, first value of cell (ADP-Glo), read-out: PI3Kα Ki

Chain of PI3Kγ (P48736 whole entry, canonical isoform): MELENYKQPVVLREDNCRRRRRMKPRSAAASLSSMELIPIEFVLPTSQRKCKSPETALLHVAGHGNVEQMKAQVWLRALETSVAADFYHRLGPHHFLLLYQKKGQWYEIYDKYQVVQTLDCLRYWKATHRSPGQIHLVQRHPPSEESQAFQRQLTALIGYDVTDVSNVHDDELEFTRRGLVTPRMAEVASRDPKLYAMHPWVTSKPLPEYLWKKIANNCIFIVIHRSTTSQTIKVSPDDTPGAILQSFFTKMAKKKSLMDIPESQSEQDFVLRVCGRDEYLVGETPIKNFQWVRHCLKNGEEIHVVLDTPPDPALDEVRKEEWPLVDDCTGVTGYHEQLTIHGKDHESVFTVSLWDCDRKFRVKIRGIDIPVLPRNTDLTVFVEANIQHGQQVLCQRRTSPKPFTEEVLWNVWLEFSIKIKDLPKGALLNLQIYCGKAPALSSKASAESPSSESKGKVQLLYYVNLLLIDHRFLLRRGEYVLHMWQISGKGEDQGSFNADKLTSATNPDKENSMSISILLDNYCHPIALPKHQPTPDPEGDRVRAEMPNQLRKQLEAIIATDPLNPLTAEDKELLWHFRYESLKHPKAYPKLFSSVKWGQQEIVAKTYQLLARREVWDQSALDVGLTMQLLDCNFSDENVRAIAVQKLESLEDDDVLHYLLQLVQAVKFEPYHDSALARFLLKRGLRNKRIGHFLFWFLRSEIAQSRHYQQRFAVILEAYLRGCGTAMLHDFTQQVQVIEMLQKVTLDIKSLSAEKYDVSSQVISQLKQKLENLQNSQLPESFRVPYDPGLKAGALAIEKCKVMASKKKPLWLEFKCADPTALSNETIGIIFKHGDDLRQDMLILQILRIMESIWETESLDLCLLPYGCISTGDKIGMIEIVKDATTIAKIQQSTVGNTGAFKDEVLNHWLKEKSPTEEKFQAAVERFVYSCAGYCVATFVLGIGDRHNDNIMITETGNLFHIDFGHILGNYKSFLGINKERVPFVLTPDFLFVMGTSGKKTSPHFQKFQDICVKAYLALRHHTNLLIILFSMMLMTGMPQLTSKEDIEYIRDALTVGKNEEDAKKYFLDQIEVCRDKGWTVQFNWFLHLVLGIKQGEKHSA
Chain of PI3Kα (P42336 whole entry): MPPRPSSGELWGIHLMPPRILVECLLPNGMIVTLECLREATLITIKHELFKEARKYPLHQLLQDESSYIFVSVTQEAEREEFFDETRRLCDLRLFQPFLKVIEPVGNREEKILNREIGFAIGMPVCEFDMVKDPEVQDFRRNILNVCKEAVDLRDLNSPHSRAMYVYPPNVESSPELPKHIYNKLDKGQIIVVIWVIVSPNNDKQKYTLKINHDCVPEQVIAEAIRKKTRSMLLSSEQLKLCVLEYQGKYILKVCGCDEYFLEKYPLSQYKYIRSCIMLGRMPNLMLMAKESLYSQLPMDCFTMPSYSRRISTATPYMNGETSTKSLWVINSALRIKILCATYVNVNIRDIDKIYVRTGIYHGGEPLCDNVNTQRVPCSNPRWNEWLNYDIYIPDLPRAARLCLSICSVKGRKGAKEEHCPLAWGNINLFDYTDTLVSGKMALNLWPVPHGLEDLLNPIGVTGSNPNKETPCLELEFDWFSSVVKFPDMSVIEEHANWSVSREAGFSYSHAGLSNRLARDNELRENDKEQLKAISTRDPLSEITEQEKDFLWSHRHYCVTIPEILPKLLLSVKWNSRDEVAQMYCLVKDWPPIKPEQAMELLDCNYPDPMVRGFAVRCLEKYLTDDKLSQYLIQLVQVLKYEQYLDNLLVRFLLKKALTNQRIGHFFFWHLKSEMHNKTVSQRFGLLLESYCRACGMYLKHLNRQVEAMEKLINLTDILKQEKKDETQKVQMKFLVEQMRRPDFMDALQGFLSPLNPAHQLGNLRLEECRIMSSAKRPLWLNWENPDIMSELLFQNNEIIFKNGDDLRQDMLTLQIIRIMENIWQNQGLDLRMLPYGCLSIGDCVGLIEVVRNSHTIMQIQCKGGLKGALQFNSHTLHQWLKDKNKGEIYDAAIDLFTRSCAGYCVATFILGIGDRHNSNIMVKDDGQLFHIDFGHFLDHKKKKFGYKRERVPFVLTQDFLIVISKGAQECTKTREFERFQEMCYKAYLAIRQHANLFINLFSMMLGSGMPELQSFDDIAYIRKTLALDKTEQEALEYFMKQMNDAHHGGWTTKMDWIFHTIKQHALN
Chain of PI3Kα (P27986 whole entry partner): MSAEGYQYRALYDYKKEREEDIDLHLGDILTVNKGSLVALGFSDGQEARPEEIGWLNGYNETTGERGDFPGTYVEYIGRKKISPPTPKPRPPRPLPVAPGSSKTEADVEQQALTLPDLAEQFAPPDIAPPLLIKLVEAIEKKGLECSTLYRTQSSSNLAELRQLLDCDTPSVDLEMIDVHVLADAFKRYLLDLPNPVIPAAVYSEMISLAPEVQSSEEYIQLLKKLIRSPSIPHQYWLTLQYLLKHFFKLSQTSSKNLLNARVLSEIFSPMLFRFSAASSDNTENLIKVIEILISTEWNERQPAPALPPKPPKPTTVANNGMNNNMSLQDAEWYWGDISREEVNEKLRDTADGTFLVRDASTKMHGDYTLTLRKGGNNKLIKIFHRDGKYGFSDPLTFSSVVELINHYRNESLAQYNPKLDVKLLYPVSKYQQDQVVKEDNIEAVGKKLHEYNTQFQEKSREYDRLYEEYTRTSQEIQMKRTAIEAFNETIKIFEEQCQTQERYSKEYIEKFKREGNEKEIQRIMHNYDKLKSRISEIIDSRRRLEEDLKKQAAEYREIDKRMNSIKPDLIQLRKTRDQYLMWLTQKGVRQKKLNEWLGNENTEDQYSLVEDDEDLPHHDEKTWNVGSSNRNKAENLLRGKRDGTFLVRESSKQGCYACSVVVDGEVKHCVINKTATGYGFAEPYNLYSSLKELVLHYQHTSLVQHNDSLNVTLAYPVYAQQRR
Chain of PI3Kβ (P42338 whole entry): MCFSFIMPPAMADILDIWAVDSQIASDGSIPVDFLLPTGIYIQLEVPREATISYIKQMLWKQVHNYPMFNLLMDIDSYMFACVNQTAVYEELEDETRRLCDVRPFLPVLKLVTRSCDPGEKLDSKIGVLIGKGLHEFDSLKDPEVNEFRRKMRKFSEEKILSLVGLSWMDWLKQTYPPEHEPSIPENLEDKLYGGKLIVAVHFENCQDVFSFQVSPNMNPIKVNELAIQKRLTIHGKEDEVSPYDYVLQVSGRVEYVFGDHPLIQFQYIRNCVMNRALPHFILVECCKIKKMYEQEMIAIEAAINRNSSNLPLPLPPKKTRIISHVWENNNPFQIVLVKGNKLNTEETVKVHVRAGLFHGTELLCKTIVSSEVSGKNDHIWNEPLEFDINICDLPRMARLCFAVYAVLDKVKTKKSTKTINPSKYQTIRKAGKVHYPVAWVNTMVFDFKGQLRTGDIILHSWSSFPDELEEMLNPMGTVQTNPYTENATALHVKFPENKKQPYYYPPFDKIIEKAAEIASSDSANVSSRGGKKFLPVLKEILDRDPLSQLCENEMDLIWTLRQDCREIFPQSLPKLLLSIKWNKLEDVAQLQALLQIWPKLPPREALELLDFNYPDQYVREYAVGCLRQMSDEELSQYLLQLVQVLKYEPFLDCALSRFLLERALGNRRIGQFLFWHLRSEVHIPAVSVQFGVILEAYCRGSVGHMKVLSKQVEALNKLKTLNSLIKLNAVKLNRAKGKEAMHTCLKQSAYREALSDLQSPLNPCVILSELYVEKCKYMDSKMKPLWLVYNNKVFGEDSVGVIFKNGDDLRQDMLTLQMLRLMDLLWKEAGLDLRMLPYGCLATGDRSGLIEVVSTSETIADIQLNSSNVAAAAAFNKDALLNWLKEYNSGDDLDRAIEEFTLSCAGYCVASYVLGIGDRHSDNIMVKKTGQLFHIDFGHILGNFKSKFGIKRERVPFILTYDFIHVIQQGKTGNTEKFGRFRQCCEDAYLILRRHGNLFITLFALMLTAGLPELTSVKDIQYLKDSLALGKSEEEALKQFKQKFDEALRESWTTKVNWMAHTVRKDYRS
Chain of PI3Kβ (P27986 whole entry partner): as the sequence (P27986 whole entry partner) above
Chain of PI3Kδ (O00329 whole entry): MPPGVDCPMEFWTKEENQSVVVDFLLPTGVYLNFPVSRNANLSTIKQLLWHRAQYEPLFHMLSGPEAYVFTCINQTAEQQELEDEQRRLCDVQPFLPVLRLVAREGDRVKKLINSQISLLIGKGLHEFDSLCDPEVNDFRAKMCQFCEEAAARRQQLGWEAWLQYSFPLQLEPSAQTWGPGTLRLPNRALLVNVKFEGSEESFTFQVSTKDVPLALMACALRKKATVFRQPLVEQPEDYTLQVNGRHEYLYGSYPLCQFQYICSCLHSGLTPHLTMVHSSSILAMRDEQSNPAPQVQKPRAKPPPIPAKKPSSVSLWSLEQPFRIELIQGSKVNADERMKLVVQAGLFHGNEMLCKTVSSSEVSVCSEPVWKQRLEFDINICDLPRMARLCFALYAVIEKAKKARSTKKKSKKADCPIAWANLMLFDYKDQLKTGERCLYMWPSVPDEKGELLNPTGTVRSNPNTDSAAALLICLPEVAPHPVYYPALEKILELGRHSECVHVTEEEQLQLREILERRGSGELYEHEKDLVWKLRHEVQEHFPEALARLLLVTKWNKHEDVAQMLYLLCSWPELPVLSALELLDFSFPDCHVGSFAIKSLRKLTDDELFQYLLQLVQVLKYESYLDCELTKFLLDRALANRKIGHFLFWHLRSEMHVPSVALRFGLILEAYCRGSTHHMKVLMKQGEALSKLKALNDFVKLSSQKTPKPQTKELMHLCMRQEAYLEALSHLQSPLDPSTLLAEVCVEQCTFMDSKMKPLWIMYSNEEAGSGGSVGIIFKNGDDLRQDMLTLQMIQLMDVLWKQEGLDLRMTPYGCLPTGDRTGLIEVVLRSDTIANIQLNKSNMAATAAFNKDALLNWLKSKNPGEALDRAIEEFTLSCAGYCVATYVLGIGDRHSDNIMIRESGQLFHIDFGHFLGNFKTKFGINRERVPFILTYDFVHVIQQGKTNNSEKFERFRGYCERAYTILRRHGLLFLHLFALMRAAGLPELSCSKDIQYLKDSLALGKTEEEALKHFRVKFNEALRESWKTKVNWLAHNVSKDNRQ
Chain of PI3Kδ (P27986 whole entry partner): as the sequence (P27986 whole entry partner) above

Structure (SMILES)	pKi (PI3Kγ)	pKi (PI3Kδ; [1])	pKi (PI3Kβ)	pKi (PI3Kα; [2])	pEC50 (P-PRAS40 SW48(E545K); [4])	Fold Selectivity for SW48(E545K) vs. SW48(parental) (P-PRAS40 SW48(E545K); [5])	pEC50 (P-PRAS40 SW48(H1047R); [4])	Fold Selectivity for SW48(H1047R) vs. SW48(parental) (P-PRAS40 SW48(H1047R); [5])	EC50 (P-PRAS40 SW48(parental); [6])	pKi (PI3Kδ; [7])	pEC50 (P-PRAS40 SW48(E545K); [8])	pEC50 (P-PRAS40 SW48(H1047R); [8])	EC50 (P-PRAS40 SW48(parental); [9])	other results
CC(C)[C@@H]1COC(=O)N1c1cn2c(n1)-c1ccc(O[C@@H](C)C(N)=O)cc1OCC2 [Compound 101, (S)-2-((2-((R)-4-isopropyl-2-oxooxazolidin-3-yl)-5,6-dihydrobenzo[f]imidazo[1,2-d][1,4]oxazepin-9-yl)oxy)propanamide]	7.14	7.73	6.41	9.10	7.48	2.1 (p < 0.001)	7.49	2.1 (p < 0.001)	68.2 nM					Selectivity for PI3Kα vs. PI3K-β (PI3Kα; [3]): 488; Selectivity for PI3Kα vs. PI3Kγ (PI3Kα; [3]): 91; Selectivity for PI3Kα vs. PI3Kδ (PI3Kα; [3]): 23
CC[C@@H]1COC(=O)N1c1cn2c(n1)-c1ccc(O[C@@H](C)C(N)=O)cc1OCC2 [Compound 104, (S)-2-((2-((R)-4-Ethyl-2-oxooxazolidin-3-yl)-5,6-dihydrobenzo[f]imidazo[1,2-d][1,4]oxazepin-9-yl)oxy)propanamide]	6.54	7.30	6.07	8.57	6.94	2.5 (p = 0.003)	6.96	2.6 (p = 0.003)	335 nM					Selectivity for PI3Kα vs. PI3K-β (PI3Kα): 315; Selectivity for PI3Kα vs. PI3Kγ (PI3Kα): 107; Selectivity for PI3Kα vs. PI3Kδ (PI3Kα): 19
C[C@H](Oc1ccc2c(c1)OCCn1cc(N3C(=O)OC[C@H]3CF)nc1-2)C(N)=O [Compound 109, (S)-2-((2-((S)-4-(Fluoromethyl)-2-oxooxazolidin-3-yl)-5,6-dihydrobenzo[f]imidazo[1,2-d][1,4]oxazepin-9-yl)oxy)propanamide]	6.90	7.52	6.42	9.00	7.48	2.2 (p = 0.002)	7.55	2.6 (p < 0.001)	74 nM					Selectivity for PI3Kα vs. PI3K-β (PI3Kα): 379; Selectivity for PI3Kα vs. PI3Kγ (PI3Kα): 127; Selectivity for PI3Kα vs. PI3Kδ (PI3Kα): 31
CCn1ncnc1-c1cn2c(n1)-c1ccc(O[C@@H](C)C(N)=O)cc1OCC2 [Compound 544, reference compound]										7.95	7.80	7.74	47.7 nM	
C[C@H](Oc1ccc2c(c1)OCCn1cc(-c3ncnn3CC(F)(F)F)nc1-2)C(N)=O [Compound 486, reference compound]										8.60	8.26	8.23	6.2 nM	pKi (PI3Kα; [10]): 9.73; Fold Selectivity for SW48(E545K) vs. SW48(parental) (P-PRAS40 SW48(E545K); Table 3B, EC50 potency ratio): 1.1 (p = 0.44); Fold Selectivity for SW48(H1047R) vs. SW48(parental) (P-PRAS40 SW48(H1047R); Table 3B, EC50 potency ratio): 1.0 (p = 0.74)
NC(=O)[C@@H]1CCCN1c1ccc2c(c1)OCCn1cc(N3C(=O)OC[C@H]3CF)nc1-2 [Compound 108, (S)-1-(2-((S)-4-(Fluoromethyl)-2-oxooxazolidin-3-yl)-5,6-dihydrobenzo[f]imidazo[1,2-d][1,4]oxazepin-9-yl)pyrrolidine-2-carboxamide]	7.62	8.71	7.22	10.37	8.54	2.1 (p < 0.001))	8.59	2.2 (p < 0.001)	6.2 nM					Selectivity for PI3Kα vs. PI3K-β (PI3Kα; [3]): 1421; Selectivity for PI3Kα vs. PI3Kγ (PI3Kα; [3]): 557; Selectivity for PI3Kα vs. PI3Kδ (PI3Kα; [3]): 46
C[C@H](Oc1ccc2c(c1)OCCn1cc(N3C(=O)OC[C@H]3C(F)F)nc1-2)C(N)=O [Compound 107, (S)-2-((2-((S)-4-(Difluoromethyl)-2-oxooxazolidin-3-yl)-5,6-dihydrobenzo[f]imidazo[1,2-d][1,4]oxazepin-9-yl)oxy)propanamide]	6.87	7.35	6.47	9.07	7.63	3.0 (p < 0.001)	7.59	2.7 (p < 0.001)	69.2 nM					Selectivity for PI3Kα vs. PI3K-β (PI3Kα; [3]): 400; Selectivity for PI3Kα vs. PI3Kγ (PI3Kα; [3]): 159; Selectivity for PI3Kα vs. PI3Kδ (PI3Kα; [3]): 52
C[C@H](Oc1ccc2c(c1)OCCn1cc(-c3ncnn3C)nc1-2)C(N)=O [Compound 540, reference compound]										7.62	6.77	6.74	381 nM	
CC(C)n1ncnc1-c1cn2c(n1)-c1ccc(N3CCC[C@H]3C(N)=O)cc1OCC2 [Compound 375, reference compound]										9.45			1.6 nM	pKi (PI3Kα): 10.80; Fold Selectivity for SW48(E545K) vs. SW48(parental) (P-PRAS40 SW48(E545K)): 1.4 (p = 0.23); EC50 (P-PRAS40 SW48(E545K); Homo sapiens, SW48, 24 h, read-out: P-PRAS40 SW48(E545K) EC50 (μM)): 0.0011 µM; Fold Selectivity for SW48(H1047R) vs. SW48(parental) (P-PRAS40 SW48(H1047R)): 1.5 (p = 0.20); EC50 (P-PRAS40 SW48(H1047R); Homo sapiens, SW48, 24 h, read-out: P-PRAS40 SW48(H1047R) EC50 (μM)): 0.001 µM
CC(C)(O)Cn1cc(-c2ccc3c(c2)OCCc2sc(N4C(=O)OCC4(C)C)nc2-3)cn1 [356 (U.S. Pat. No. 8,263,633), reference compound]										9.04	7.11	7.10	310 nM	Selectivity for PI3Kα vs. PI3Kδ (PI3Kα): 1; pKi (PI3Kα; [10]): 9.01; Fold Selectivity for SW48(E545K) vs. SW48(parental) (P-PRAS40 SW48(E545K); Table 3B, EC50 potency ratio): 4.0 (p < 0.001); Fold Selectivity for SW48(H1047R) vs. SW48(parental) (P-PRAS40 SW48(H1047R); Table 3B, EC50 potency ratio): 3.9 (p < 0.001)
NC(=O)[C@@H]1CCCN1c1ccc2c(c1)OCCn1cc(-c3ncnn3CC(F)(F)F)nc1-2 [Compound 469, reference compound]										9.37	9.10	9.05	1 nM	pKi (PI3Kα; [10]): 10.60; Selectivity for PI3Kα vs. PI3Kδ (PI3Kα; Table 2B comparator compounds, selectivity ratio (fold)): 17; Fold Selectivity for SW48(E545K) vs. SW48(parental) (P-PRAS40 SW48(E545K); Table 3B, EC50 potency ratio): 1.8 (p = 0.04); Fold Selectivity for SW48(H1047R) vs. SW48(parental) (P-PRAS40 SW48(H1047R); Table 3B, EC50 potency ratio): 1.6 (p = 0.11)
